Measured values as given in patent US20070243144A1, “External Preparation” (TOYO SHINYAKU CO., LTD, priority 2004, published 2007).

Tested on: HFSKF-II cells (human skin fibroblast)
Experiment: Ability to suppress the generation of active oxygen caused by ultraviolet radiation
Type: cell-based
Details: 100 μg/mL in medium with 0.03 wt % hydrogen peroxide; UV A 365 nm 4.4 J/cm^2; DCFH-DA fluorescence; six wells
Protocol: HFSKF-II cells (human skin fibroblast; obtained from RIKEN) were seeded in a 96-well plate at a concentration of 2×10^5 cells/well, and using 0.1 mL of standard medium (Ham's F-12 medium containing 15% of fetal calf serum; manufactured by Sigma-Aldrich), these were incubated for 24 hours at 37° C. in a 5% CO2 atmosphere. Next, the plate was washed three times with PBS by the method of Hong Wang et al. (Free Radic. Biol. Med., 1999). Then the medium was replaced with a standard medium containing 100 μM of DCFH-DA (2′,7′-dichlorofluorescein diacetate; manufactured by Sigma-Aldrich) and this was incubated for 10 minutes at 37° C. in a 5% CO2 atmosphere. Next, the plate was washed three times with PBS. […] UV A is a UV radiation that readily passes through skin, and is known to promote skin aging.
Next, the fluorescence F of the DCFH-DA that is emitted due to the presence of active oxygen was measured with a multispectrometer (Varioscan; excitation wavelength: 485±10 nm, detection wavelength: 530±10 nm; Thermo Electron Corporation), and the suppression rate of the active oxygen generation due to UV radiation when the pueraria flower extract was employed was calculated from the following formula. […] Fsample: The fluorescence measured after the medium was replaced with a standard medium that contains pueraria flower extract and UV A was irradiated. […]

COC1=C(OC)C(=O)C(C/C=C(\C)CC/C=C(\C)CC/C=C(\C)CC/C=C(\C)CC/C=C(\C)CC/C=C(\C)CC/C=C(\C)CC/C=C(\C)CC/C=C(\C)CCC=C(C)C)=C(C)C1=O [Coenzyme Q10, coenzyme Q10]
Suppression rate of the active oxygen generation (%): 30.6 ± 7.7%
